Experimental data as given in US12564582B2 (Prilenia Neurotherapeutics Ltd., priority 2016, dated 2026).
Read-outs that look alike come from different tables or passages of the source.

Key:
[1] = system: patients with Huntington's disease; settings: for Δ to placebo, change from baseline in UHDRS TMS Dystonia: 112.5 mg bid;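 on Δ to placebo, change from baseline in UHDRS TMS Finger Taps: finger tapping item rates tapping with fingers of both hands, normal being 15 taps within 5 s, the combined score adds forearm pronation and supination on each side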
Excerpt: In the UHDRS, maximal dystonia was scored from 0 (absent) to 4 (marked/prolonged) on each of the following items: trunk, right upper extremity, left upper extremity, right lower extremity, and left lower extremity. Maximal dystonia is the sum of all scores.

[2] = system: patients with Huntington's disease; settings: Week 52;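 on Δ to placebo, change from baseline in UHDRS TMS Finger Taps: finger tapping item rates tapping with fingers of both hands, normal being 15 taps within 5 s, the combined score adds forearm pronation and supination on each side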
Excerpt: Motor deficits can be objectively assessed using different Q-Motor assessments. All Q-Motor assessments are based on the application of precalibrated and temperature controlled force transducers and 3-dimensional position sensors with very high sensitivity and test-retest reliability across sessions and sites in a multicenter clinical study. Q-Motor measures thus aim to reduce the limited sensitivity of categorical clinical rating scales, the intra- and inter-rater variability, and placebo effects observed in scales such as UHDRS-TMS. In addition, Q-Motor assessments allow for the objective monitoring of unintended motor side-effects in clinical studies. Thus, Q-Motor is an objective, reliable, and sensitive measure of motor function that is free of rater bias and limits placebo effect influence.
This task assessed the regularity of hand taps performed when alternating between the palm and dorsal surface of the hand performing a repetitive pronation/supination movement. The force and duration of the hand taps are recorded similarly to the speeded tapping task. A tone cues the start and end of an assessment. Five trials of 10 seconds duration are performed with each hand.

[3] = system: patients with Huntington's disease; settings: after 26 weeks of treatment;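 on Δ to placebo, change from baseline in UHDRS TMS Finger Taps: finger tapping item rates tapping with fingers of both hands, normal being 15 taps within 5 s, the combined score adds forearm pronation and supination on each side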
Excerpt: The TFC scale of the UHDRS is a standardized scale used to assess 5 functional domains associated with disability shown below (occupation, finances, domestic chores (e.g. laundry, washing dishes), activities of daily living, and care level).

[4] = system: patients with Huntington's disease;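 on Δ to placebo, change from baseline in UHDRS TMS Finger Taps: finger tapping item rates tapping with fingers of both hands, normal being 15 taps within 5 s, the combined score adds forearm pronation and supination on each side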
Excerpt: Finger Taps and Pronate-Supinate (P/S) hands is a combination of finger tapping (the ability to tap the fingers of both hands where 15 repetitions in 5 seconds is considered normal) with pronation/supination (the ability to rotate the forearm and hand such that the palm is down (pronation) and to rotate the forearm and hand such that the palm is up (supination) on both sides of the body).
The hand movement score is defined as the sum of UHDRS domains finger taps, pronate-supinate hands and luria (fist-hand-palm test).
An assessment of the ability to rotate the forearm and hand such that the palm is down (pronation) and to rotate the forearm and hand such that the palm is up (supination) on both sides of the body.

[5] = system: patients with Huntington's disease; settings: 45 mg b.i.d, pooled MermaiHD, HART and Pride-HD, BL dystonia ≥4
[6] = 45 mg bid, score at week 26, patients who have completed 52 weeks of treatment
[7] = 45 mg bid, score at week 52, patients who have completed 52 weeks of treatment
[8] = 67.5 mg bid, score at week 26, patients who have completed 52 weeks of treatment
[9] = 67.5 mg bid, score at week 52, patients who have completed 52 weeks of treatment
[10] = 90 mg bid, score at week 26, patients who have completed 52 weeks of treatment
[11] = 90 mg bid, score at week 52, patients who have completed 52 weeks of treatment
[12] = 112.5 mg bid, score at week 26, patients who have completed 52 weeks of treatment
[13] = 112.5 mg bid, score at week 52, patients who have completed 52 weeks of treatment

CCCN1CCC(c2cccc(S(C)(=O)=O)c2)CC1 [pridopidine, 4-[3-(methylsulfonyl)phenyl]-1-propyl-piperidine]
Δ to placebo, change from baseline in UHDRS TMS Dystonia ([1]; Week 52, Stage 1 BL TFC 11-13): −0.46 | Δ to placebo, change from baseline in UHDRS TMS Dystonia ([1]; Week 52, all pridopidine treated patients): −0.24 | Δ to placebo, change from baseline in UHDRS TMS Dystonia ([1]; week 26, BL TFC ≥9 and CAG Repeats <44 and BL TMS 1st 3 Qs): −1.29 | Δ to placebo, change from baseline in UHDRS TMS Dystonia ([1]; week 26, BL TFC≥9 AND CAG Repeats <44): −1.4 | Δ to placebo, change from baseline in UHDRS TMS Dystonia ([1]; week 26, CAG Repeats <44 AND BL TMS 1st 3 Qs): −0.62 | dystonia score, change from baseline ([1]; baseline total dystonia score≥4, Week 52, all treatment groups, greatest decreases for 45, 67.5 and 90 mg bid): directional clinical improvement | dystonia score, change from baseline ([1]; full analysis set, Week 26 or Week 52, all active treatment groups): no clinically meaningful changes from baseline | Wk 52 Δ to placebo, change from baseline in Q-Motor: Pro-Sup-Frequency-MN-Hand ([2]; 45 mg bid, FAS): 0.0599 Hz | Wk 52 Δ to placebo, change from baseline in Q-Motor: Pro-Sup-Frequency-MN-Hand ([2]; 45 mg bid, HD1 and HD2 patients): 0.1195 Hz | Wk 52 Δ to placebo, change from baseline in Q-Motor: Pro-Sup-Frequency-MN-Hand ([2]; 67.5 mg bid, FAS): −0.0124 Hz | Wk 52 Δ to placebo, change from baseline in Q-Motor: Pro-Sup-Frequency-MN-Hand ([2]; 67.5 mg bid, HD1 and HD2 patients): 0.0548 Hz | Wk 52 Δ to placebo, change from baseline in Q-Motor: Pro-Sup-Frequency-MN-Hand ([2]; 90 mg bid, FAS): −0.0087 Hz | Wk 52 Δ to placebo, change from baseline in Q-Motor: Pro-Sup-Frequency-MN-Hand ([2]; 90 mg bid, HD1 and HD2 patients): 0.0575 Hz | Wk 52 Δ to placebo, change from baseline in Q-Motor: Pro-Sup-Frequency-MN-Hand ([2]; 112.5 mg bid, FAS): 0.0127 Hz | Wk 52 Δ to placebo, change from baseline in Q-Motor: Pro-Sup-Frequency-MN-Hand ([2]; 112.5 mg bid, HD1 and HD2 patients): 0.08 Hz | Total Functional Capacity (TFC) [3]: trends favoring pridopidine | Δ to placebo, change from baseline in UHDRS TMS Finger Taps ([4]; 45 mg bid, Week 26, ALL): −0.3 | Δ to placebo, change from baseline in UHDRS TMS Finger Taps ([4]; 45 mg bid, Week 26, BL TFC≥9, CAG Repeats <44, BL TMS 1st 3 Qs): −0.87 | Δ to placebo, change from baseline in UHDRS TMS Finger Taps ([4]; 45 mg bid, Week 26, BL TFC≥9 and CAG Repeats>44): −0.86 | Δ to placebo, change from baseline in UHDRS TMS Finger Tapping+Pronate-Supinate Hands [4, 6]: −0.79 | Δ to placebo, change from baseline in UHDRS TMS Finger Taps [4, 6]: −0.59 | Δ to placebo, change from baseline in UHDRS TMS Finger Tapping+Pronate-Supinate Hands [4, 7]: −0.37 | Δ to placebo, change from baseline in UHDRS TMS Finger Taps [4, 7]: −0.31 | Δ to placebo, change from baseline in UHDRS TMS Finger Taps ([4]; 67.5 mg bid, Week 26, ALL): −0.07 | Δ to placebo, change from baseline in UHDRS TMS Finger Taps ([4]; 67.5 mg bid, Week 26, BL TFC≥9, CAG Repeats <44, BL TMS 1st 3 Qs): −0.36 | Δ to placebo, change from baseline in UHDRS TMS Finger Taps ([4]; 67.5 mg bid, Week 26, BL TFC≥9 and CAG Repeats>44): −0.34 | Δ to placebo, change from baseline in UHDRS TMS Finger Tapping+Pronate-Supinate Hands [4, 8]: 0.02 | Δ to placebo, change from baseline in UHDRS TMS Finger Taps [4, 8]: −0.13 | Δ to placebo, change from baseline in UHDRS TMS Finger Tapping+Pronate-Supinate Hands [4, 9]: 0.68 | Δ to placebo, change from baseline in UHDRS TMS Finger Taps [4, 9]: 0.13 | Δ to placebo, change from baseline in UHDRS TMS Finger Taps ([4]; 90 mg bid, Week 26, ALL): −0.07 | Δ to placebo, change from baseline in UHDRS TMS Finger Taps ([4]; 90 mg bid, Week 26, BL TFC≥9, CAG Repeats <44, BL TMS 1st 3 Qs): −0.54 | Δ to placebo, change from baseline in UHDRS TMS Finger Taps ([4]; 90 mg bid, Week 26, BL TFC≥9 and CAG Repeats>44): −0.52 | Δ to placebo, change from baseline in UHDRS TMS Finger Tapping+Pronate-Supinate Hands [4, 10]: 0.02 | Δ to placebo, change from baseline in UHDRS TMS Finger Taps [4, 10]: −0.01 | Δ to placebo, change from baseline in UHDRS TMS Finger Tapping+Pronate-Supinate Hands [4, 11]: 0.48 | Δ to placebo, change from baseline in UHDRS TMS Finger Taps [4, 11]: 0.08 | Δ to placebo, change from baseline in UHDRS TMS Finger Taps ([4]; 112.5 mg bid, Week 26, ALL): −0.12 | Δ to placebo, change from baseline in UHDRS TMS Finger Taps ([4]; 112.5 mg bid, Week 26, BL TFC≥9, CAG Repeats <44, BL TMS 1st 3 Qs): −1.05 | Δ to placebo, change from baseline in UHDRS TMS Finger Taps ([4]; 112.5 mg bid, Week 26, BL TFC≥9 and CAG Repeats>44): −1.07 | Δ to placebo, change from baseline in UHDRS TMS Finger Tapping+Pronate-Supinate Hands [4, 12]: −0.23 | Δ to placebo, change from baseline in UHDRS TMS Finger Taps [4, 12]: −0.21 | Δ to placebo, change from baseline in UHDRS TMS Finger Tapping+Pronate-Supinate Hands [4, 13]: 0.28 | Δ to placebo, change from baseline in UHDRS TMS Finger Taps [4, 13]: 0.1 | UHDRS Dystonia score compared to placebo ([5]; Week 26): statistically significant improvement | UHDRS Dystonia score compared to placebo ([5]; Week 52): trend toward this improvement was maintained
